Where “and” joins values, the source holds several entries; their conditions need not be identical. Equal values may be shown once.
Experiments:
human neutrophils = assay: CDKi-induced, caspase-dependent neutrophil apoptosis detected with Apo-15; assay type: cell-based; settings: R-roscovitine 20 µM (CDKi), QVD 10 μM, single replicates Data 1-4
Method: First, we confirmed that Apo-15 could detect CDKi-induced apoptosis in vitro. […] Apo-15 staining of CDKi-induced apoptosis was also caspase-dependent as confirmed by a significant reduction in the fluorescent signal after treatment with the caspase inhibitor QVD[34] (Fig. 5a). Next, we induced ALI in vivo in mice by intratracheal administration of E. coli-derived LPS (1 μg per mouse), and the apoptotic load in the lungs relative to saline control was increased by intraperitoneal administration of CDKi AT7519[38] (Fig. 5b). In all mice, we administered Apo-15 in vivo and, 30 min later, we collected bronchoalveolar lavage fluid (BALF) together with lung tissues. BALF and lung slices from LPS-only and LPS + CDKi mice were analyzed by multiparameter flow cytometry to determine the proportion of apoptotic cells that had been stained by Apo-15 in vivo (gating strategy in Supplementary Fig. 15). […] Furthermore, we quantified the effects of CDKi-induced apoptosis in vivo by measuring the percentages of apoptotic neutrophils in total cell counts. […] We confirmed that CD45 + Ly6G+ cells labeled by Apo-15 in vivo were apoptotic by co-staining with AF647-Annexin V ex vivo (Fig. 5d). Next, we acquired fluorescence microscopy images of lung tissue sections from mice under different regimes (Fig. 5c, e). […]

[1] = design: method as in 2 sources, ref Table 1 ||| ref [8],[60],[19],[61],[63],[64],[66],[67] = [8]; PMID 19966809; doi:10.1038/nmeth.1405; 8. Kim YE Chen J Chan JR Langen R Engineering a polarity-sensitive biosensor for time-lapse imaging of apoptotic processes and degeneration Nat. Methods 2010 7 67 73 19966809 10.1038/nmeth.1405 PMC284 || [60]; PMID 20671723; doi:10.1038/nprot.2010.101; 60. Kim YE Chen J Langen R Chan JR Monitoring apoptosis and neuronal degeneration by real-time detection of phosphatidylserine externalization using a polarity-sensitive indicator of viability and apo || [19]; PMID 17051335; doi:10.1007/s10495-006-0282-7; 19. Aloya R Molecular imaging of cell death in vivo by a novel small molecule probe Apoptosis 2006 11 2089 2101 17051335 10.1007/s10495-006-0282-7 PMC2782107 || [61]; PMID 16317537; doi:10.1007/s00259-005-1905-x; 61. Damianovich M ApoSense: a novel technology for functional molecular imaging of cell death in models of acute renal tubular necrosis Eur. J. Nucl. Med. Mol. Imaging 2006 33 281 291 16317537 10.1007 || [63]; PMID 15113694; doi:10.1016/j.ab.2004.01.020; 63. Garcia Fernandez MI Ceccarelli D Muscatello U Use of the fluorescent dye 10-N-nonyl acridine orange in quantitative and location assays of cardiolipin: a study on different experimental models Ana; settings: cited from earlier work; for Brightness (φ × ε): Table 1, commercial probes, ref [8],[60],[19],[61],[63],[64],[66],[67]
apoptotic neutrophils = assay: Signal-to-noise ratios in imaging of apoptotic neutrophils; assay type: cell-based, human; settings: apoptotic cells, excitation 488 nm, same settings; response to reviewers
Method: Signal-to-noise ratios for apoptotic neutrophils labeled with FITC-Annexin V or Apo-15 were determined after image acquisition under the same laser power and gain and analysis using ImageJ. Briefly, raw images were converted into 16-bit grayscale images and average fluorescence intensities in labeled cells and in the background were measured (≥150 points per condition). Experiments were performed in triplicate.
Supplementary Figure 14. Quantification of the fluorescence signal-to-noise (S/N) ratios in apoptotic neutrophils after staining with Apo -15 (100 nM) or FITC-Annexin V (25 nM) and image acquisition under the same experimental conditions
(excitation/emission filters: 488 nm /525 nm). Data presented as mean values±SEM (n=3-4 independent cells from 3 independent experiments). Source data are provided […]
FIT C, AlexaFluor647). […]
In imaging experiment in mice, the fluorescence signals were not found along membranes in the cells. […]
First, we have included flow cytometric data from BALs of LPS-treated mice that were not given Apo- 15, which conf irm ed the lack of green fluorescence in viable CD45+CD11c+ Annexin V− macrophages (new Supplementary Figure 15 and new Supplementary Figure 18 for the results). […]

Molecule	Apo-15-positive cells (flow cytometry) (human neutrophils)	Brightness (φ × ε) [1]	further results
CC[C@H](CO)Nc1nc(NCc2ccccc2)c2ncn(C(C)C)c2n1 [CDKi, R-roscovitine]	57.1 and 64.3 and 39.1 and 90.1		
CN(C)c1cccc2c(S(=O)(=O)N[C@@H](CSSC[C@H](NS(=O)(=O)c3cccc4c(N(C)C)cccc34)C(=O)O)C(=O)O)cccc12 [N,N′-Didansyl-L-cystin]		3000	Brightness ([1]; other environmentally-sensitive probes, ref Table 1): 3000 M⁻¹ cm⁻¹
CCCCCCCCC[n+]1c2cc(N(C)C)ccc2cc2ccc(N(C)C)cc21.[Br-] [Nonyl acridine orange]		20,000	
CC[N+](C)(CC)CCC[n+]1c(-c2ccccc2)c2cc(N)ccc2c2ccc(N)cc21.[I-].[I-] [PI, propidium iodide]		<100	
CC(C)[C@H](NC(=O)c1ccc2ccccc2n1)C(=O)N[C@@H](CC(=O)O)C(=O)COc1c(F)cccc1F [QVD]	3.0 and 7.0 and 2.9 and 4.0		
Annexin-FITC: FITC-labeled annexin V (protein, UniProt P08758 2-320, looked up, FITC label, FITC-labeled annexin V) Annexin A5: AQVLRGTVTDFPGFDERADAETLRKAMKGLGTDEESILTLLTSRSNAQRQEISAAFKTLFGRDLLDDLKSELTGKFEKLIVALMKPSRLYDAYELKHALKGAGTNEKVLTEIIASRTPEELRAIKQVYEEEYGSSLEDDVVGDTSGYYQRMLVVLLQANRDPDAGIDEAQVEQDAQALFQAGELKWGTDEEKFITIFGTRSVSHLRKVFDKYMTISGFQIEETIDRETSGNLEQLLLAVVKSIRSIPAYLAETLYYAMKGAGTDDHTLIRVMVSRSEIDLFNIRKEFRKNFATSLYSMIKGDTSGDYKKALLLLCGEDD			Signal-to-noise ratio (apoptotic neutrophils): ~100 fold
